The values that follow come from the supplement of paper PMC11061612.

What all share (assay): Bliss excess, mean over the matrix (fraction); higher = more synergy
Experiment [1] deals with DU-145 (Prostate Carcinoma). In a few lines: (§1)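 Cell lines grown in DMEM/F12 or RPMI with 10% FBS were plated in 1536-well plates and held 24 hours at 37°C, 5% CO2 before 72 hours of exposure to two-drug dose matrices, with DMSO typically at 0.2%. CellTiter-Glo 2.0 luminescence gave viability, which was converted to inhibition. Vehicle wells were set to 0 and blank wells to 1. Combination Emax is the second-highest inhibition in the matrix, and Bliss excess is the observed combination effect minus the expected EA + EB − EA·EB, where EA and EB are the single-agent effects.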

For experiment [2], the system named is EFO-21 (Ovarian Carcinoma). In a few lines:
as §1

Experiment [3] relates to EJM (Plasma Cell Myeloma). The procedure, abridged:
as §1

The test system of experiment [4] is EW-1 (Ewing's Sarcoma). The procedure, abridged:
as §1

The test system of experiment [5] is HCC1500 (Breast Carcinoma). The procedure, abridged:
as §1

In experiment [6] the test system is HCC1937 (Breast Carcinoma). The procedure, abridged:
as §1

Experiment [7] has as its system KMRC-1 (Kidney Carcinoma). In a few lines:
as §1

Experiment [8] deals with MDA-MB-453 (Breast Carcinoma). In a few lines: as §1
Experiment [9] concerns ME-180 (Cervical Carcinoma). The procedure, abridged:
as §1

Experiment [10] has as its system ML-2 (Acute Myeloid Leukemia). In a few lines:
as §1

The test system of experiment [11] is MOLT-4 (T-Lymphoblastic Leukemia). In a few lines:
as §1

For experiment [12], the system named is MV-4-11 (Acute Myeloid Leukemia). The procedure, abridged: as §1
Experiment [13] concerns Mo-T (Other Blood Carcinomas). The procedure, abridged:
as §1

For experiment [14], the system named is NCI-H1092 (Small Cell Lung Carcinoma). The procedure, abridged:
as §1

For experiment [15], the system named is NCI-H1355 (Lung Adenocarcinoma). The procedure, abridged: as §1
For experiment [16], the system named is NCI-H1993 (Lung Adenocarcinoma). In a few lines:
as §1

Experiment [17] concerns NCI-H522 (Lung Adenocarcinoma). In a few lines:
as §1

Experiment [18] concerns OE33 (Esophageal Adenocarcinoma). In a few lines:
as §1

In experiment [19] the test system is SK-N-AS (Neuroblastoma). The procedure, abridged: as §1
Experiment [20] relates to SW982 (Other Solid Carcinomas). In a few lines:
as §1

Structures are written as SMILES.

In the case of `CC1(C)CCC(CN2CCN(c3ccc(C(=O)NS(=O)(=O)c4ccc(NCC5CCOCC5)c([N+](=O)[O-])c4)c(Oc4cnc5[nH]ccc5c4)c3)CC2)=C(c2ccc(Cl)cc2)C1` [Venetoclax] + Cn1cnc2c(F)c(Nc3ccc(Br)cc3Cl)c(C(=O)NOCCO)cc21 [Selumetinib] (first compound max 1 µM, 7x7, partner max 3 µM), the Bliss excess is -0.0121 in [1]; -0.069 in [2]; -0.006 in experiment [3]; -0.0483 in [4]; -0.023 in experiment [5]; -0.0392 in experiment [6]. The Bliss excess in experiment [7] was -0.0344; in experiment [8] it was -0.0284; in experiment [9], -0.01; in [10], 0.0747; in experiment [11] it was 0.021; in experiment [12], -0.0022. Further, the Bliss excess in experiment [13] was 0.021; in experiment [14], -0.0691; in experiment [15], -0.032; in [16], -0.0358; in experiment [17] it was -0.0215; in [18] it was -0.0192. In addition, the Bliss excess in experiment [19] was 0.0083; in experiment [20], -0.0722.
